Data reported in article PMC11981937 (Nature, 2025).

Assays:
[1] = target: purified recombinant SARS-CoV-2 M (Severe acute respiratory syndrome coronavirus 2, UniProt P0DTC5); assay: Nano differential scanning fluorimetry (nanoDSF); format: binding; conditions: 100 µM compound, 0.5 mg/ml M protein, n=3
MHV [2] = assay: MHV antiviral assay in Huh7 cells (luciferase); format: cell-based, mouse hepatitis virus; conditions: Murine coronavirus, Huh-7, Huh7, MHV (betaCoV), N=2
in vitro [3] = conditions: human
MHV [4] = assay: MHV antiviral assay in HeLa cells (luciferase); format: cell-based, mouse hepatitis virus; conditions: Murine coronavirus, MHV (betaCoV)
Pg-CoV = assay: microbe, parasite or virus in culture; format: cell-based; conditions: Pangolin coronavirus
in vivo [5] = conditions: Syrian golden, hamster; for concentration at 0.05 h / concentration at 1 h / concentration at 2 h / concentration at 4 h / concentration at 7 h / concentration at 24 h / concentration at 12 h / concentration at 0.5 h: female
SHC014 = assay: organism not typed; format: cell-based, bat SHC014
Huh7 cells = conditions: human
in vitro [6] = conditions: human; remark: listed apart in the source
SARS-CoV-2 (B1) = format: cell-based
HCoV-OC43 = HCoV-OC43 antiviral CPE reduction assay in MRC-5 cells; format: cell-based
Excerpt: 161 determined with Promega CellTiter 96™ via a colorimetric assay (MTS assay). Readout was done
162 using a GloMax® Discover Microplate Reader (Promega).
163 Data were normalized taking the infected cells without treatment and the mock non-infected cells
164 as the bottom and top values of the dose-response curves, respectively. Dose-response curves were
165 fitted using non-linear regression analysis employing a sigmoidal model in Graphpad Prism
166 (version 9.5.0). In each experiment, data were presented as mean ± standard error of the mean of
167 3 technical replicates.
168 HCoV-OC43 antiviral CPE reduction assay
169 For the HCoV-OC43 CPE reduction assay, MRC-5 cells were seeded in black or white 96-well
170 plates (Greiner Bio-One) at a density of 10,000 cells/well and incubated overnight at 37°C. The
171 next day, compound was added to the assay plates in either a 4-fold dilution series or 2-fold dilution
172 series. Sequentially, cells were infected with HCoV-OC43 at a final MOI of 0.3. Plates were then
173 incubated for 6 days at 33°C under 5% CO2. […]
174 determined using the Viral ToxGlo™ assay (Promega) on a BioTek spectrophotometer.
175 Cytotoxicity was evaluated in parallel in treated, uninfected cells in a similar set-up with the same
176 readout. EC50 and CC50 values were calculated using GraphPad Prism 9.5.0. […]
181 0.1. […] Readouts for antiviral activity […]

SARS-CoV = assay: microbe, parasite or virus in culture; format: cell-based; conditions: Severe acute respiratory syndrome coronavirus, Vero
in vivo [7] = conditions: dog
in vivo [8] = conditions: rat
[9] = po, 50 mg/kg, individual animal

C[C@H]1Cn2ncc(C(=O)Nc3cccc(C#N)c3)c2C(=O)N1c1ccc(C(F)(F)c2ccccc2)cc1 [JNJ-9676, (S)-N-(3-cyanophenyl)-5-(4-(difluoro(phenyl)methyl)phenyl)-6-methyl-4-oxo-4,5,6,7-tetrahydropyrazolo[1,5-a]pyrazine-3-carboxamide]
Tm [1]: 54.1 ± 0.1 °C
ΔTm (stabilization in melting temperature) [1]: 0.9 °C
EC50 (MHV [2]; read-out: Median EC50): 3.4 µM
EC90 (MHV [2]; read-out: Median EC90): 12.4 µM
CC50 at 6 days (in vitro [3]): > 50 µM
EC50 (MHV [4]; read-out: EC50 (column Median EC50; N=1, no median)): 1.3 µM
EC90 (MHV [4]; read-out: EC90 (column Median EC90; N=1, no median)): 6.3 µM
EC50 (Pg-CoV): 0.004 to 0.006 µM
Vd (in vivo [5]): 7.9 L/kg
clearance (in vivo [5]): 9 mL/min/kg
half-life (in vivo [5]): 13 h
bioavailability (in vivo [5]; po): > 50%
concentration at 0.05 h (in vivo [5]; iv, 1 mg/kg, average): 555 ng/mL
concentration at 1 h (in vivo [5]; iv, 1 mg/kg, average): 240 ng/mL
concentration at 2 h (in vivo [5]; iv, 1 mg/kg, average): 186 ng/mL
concentration at 4 h (in vivo [5]; iv, 1 mg/kg, average): 83.8 ng/mL
concentration at 7 h (in vivo [5]; iv, 1 mg/kg, average): 47.7 ng/mL
concentration at 24 h (in vivo [5]; iv, 1 mg/kg, average): 19.2 ng/mL
concentration at 12 h (in vivo [5]; iv, 1 mg/kg, average, female hamster, IV 1 mg/kg, 12 h, n=3): 25.1 ng/mL
concentration at 0.05 h (in vivo [5]; iv, 1 mg/kg, individual animal): 558 ng/mL
concentration at 1 h (in vivo [5]; iv, 1 mg/kg, individual animal): 268 ng/mL
concentration at 2 h (in vivo [5]; iv, 1 mg/kg, individual animal): 170 ng/mL
concentration at 4 h (in vivo [5]; iv, 1 mg/kg, individual animal): 75.9 ng/mL
concentration at 7 h (in vivo [5]; iv, 1 mg/kg, individual animal): 45.4 ng/mL
concentration at 12 h (in vivo [5]; iv, 1 mg/kg, individual animal): 26.7 ng/mL
concentration at 24 h (in vivo [5]; iv, 1 mg/kg, individual animal): 20.1 ng/mL
concentration at 0.5 h (in vivo [5]; po, 5 mg/kg, average): 68.1 ng/mL
concentration at 1 h (in vivo [5]; po, 5 mg/kg, average): 114 ng/mL
concentration at 2 h (in vivo [5]; po, 5 mg/kg, average): 220 ng/mL
concentration at 4 h (in vivo [5]; po, 5 mg/kg, average): 264 ng/mL
concentration at 7 h (in vivo [5]; po, 5 mg/kg, average): 176 ng/mL
concentration at 12 h (in vivo [5]; po, 5 mg/kg, average): 129 ng/mL
concentration at 24 h (in vivo [5]; po, 5 mg/kg, average): 82.6 ng/mL
concentration at 0.5 h (in vivo [5]; po, 5 mg/kg, individual animal): 71 ng/mL
concentration at 1 h (in vivo [5]; po, 5 mg/kg, individual animal): 95.4 ng/mL
concentration at 2 h (in vivo [5]; po, 5 mg/kg, individual animal): 230 ng/mL
concentration at 7 h (in vivo [5]; po, 5 mg/kg, individual animal): 142 ng/mL
concentration at 12 h (in vivo [5]; po, 5 mg/kg, individual animal): 89.2 ng/mL
concentration at 12 h (in vivo [5]; po, 5 mg/kg, individual animal, female hamster, PO 5mg/kg, 12 h): 145 ng/mL
concentration at 0.5 h (in vivo [5]; po, 50 mg/kg, average): 801 ng/mL
concentration at 1 h (in vivo [5]; po, 50 mg/kg, average): 1060 ng/mL
concentration at 4 h (in vivo [5]; po, 50 mg/kg, average): 2430 ng/mL
concentration at 7 h (in vivo [5]; po, 50 mg/kg, average): 2080 ng/mL
concentration at 24 h (in vivo [5]; po, 50 mg/kg, average): 655 ng/mL
concentration at 2 h (in vivo [5]; po, 50 mg/kg, average, female hamster, PO 50mg/kg, 2 h, n=3): 1760 ng/mL
concentration at 12 h (in vivo [5]; po, 50 mg/kg, average, female hamster, PO 50mg/kg, 12 h, n=3): 1200 ng/mL
concentration at 0.5 h (in vivo [5]; [9]): 680 ng/mL
concentration at 1 h (in vivo [5]; [9]): 829 ng/mL
concentration at 2 h (in vivo [5]; [9]): 1580 ng/mL
concentration at 4 h (in vivo [5]; [9]): 2230 ng/mL
concentration at 7 h (in vivo [5]; [9]): 1510 ng/mL
concentration at 1 h (in vivo [5]; po, 50 mg/kg, individual animal, female hamster, PO 50mg/kg, 1 h): 1450 ng/mL
EC50 (SHC014): 0.004 to 0.006 µM
CC50 (Huh7 cells): > 30 µM
CC50 (in vitro [6]; Median CC50): > 20 µM
CC50 (in vitro [6]; Median CC50, Huh7, line of MHV, N=2): > 20 µM
CC50 (in vitro [6]; Median CC50, Huh7, line of PDCoV, N=2): > 30 µM
biogenesis of infectious progeny (SARS-CoV-2 (B1)): inhibited completely
EC90 (HCoV-OC43; Betacoronavirus 1, MRC5, MRC-5, HCOV-OC43 (betaCoV), EC90 could be calculated in one experiment, read-out: Median EC90): 4 µM
EC50 (HCoV-OC43; Betacoronavirus 1, OC43, MRC5, read-out: Median EC50): 3.9 µM
EC50 (SARS-CoV; read-out: Median EC50): 0.016 µM
EC90 (SARS-CoV; read-out: Median EC90): 0.02 µM
Vd (in vivo [7]): 8.2 L/kg
clearance (in vivo [7]): < 1.5 mL/min/kg
half-life (in vivo [7]): > 40 h
bioavailability (in vivo [7]; po): > 80%
Vd (in vivo [8]): 8.4 L/kg
clearance (in vivo [8]): 5.2 mL/min/kg
half-life (in vivo [8]): 19 h
bioavailability (in vivo [8]; po): > 70%
